{"source": "paper PMC7835349", "about": "(Communications Biology, 2021)", "key": {"[1]": {"assay": "Plasma pharmacokinetics after IV bolus in C.B-17 SCID mouse", "format": "in vivo", "details": "for concentration at 0.05 h / concentration at 0.5 h / concentration at 1 h / concentration at 2 h / concentration at 4 h / concentration at 6 h / concentration at 8 h / Concentration AZD4320 in Plasma, individual animals: 5 mg/kg, mouse IV", "method": "Pharmacokinetic studies were carried out in the female C.B-17 SCID mouse. Either freshly prepared solutions of AZD4320 in 30% hydroxypropyl-β-cyclodextrin or drug-dendrimer conjugates in phosphate buffered saline were injected as a bolus into the tail vein at dosing volume of 5 ml/kg. Blood samples were collected at different time points post dose and analysed as below.\nBlood samples were collected from the jugular vein by venepuncture into K2EDTA (as anticoagulant) tubes. Immediately following collection into the K2EDTA tube the samples were mixed gently and kept on crushed ice until centrifugation. Within 30 mins of blood collection, each sample was centrifuged (1500 g for 10 min at 4 °C) to generate plasma which was kept on wet ice at all times in polypropylene tubes. Duplicate 50 μL aliquots were transferred immediately after centrifugation into uniquely labelled polypropylene tubes (‘released’ AZD4320) containing equivalent amount (50 μL) of 0.2 M citric acid solution, inverted 10 times and then stored in a freezer set to maintain a temperature of −80 °C, until analysis.\nThe concentrations of ‘total’ AZD4320 were determined in plasma by overnight incubation with hydrazine followed by protein precipitation with acetonitrile and subsequent liquid/liquid extraction. Liquid chromatography with mass spectrometric detection (LC-MS/MS, details in Supplementary Table 5) was used to quantitate both ‘released’ and ‘total’ AZD4320.\nSample analyses were performed in batches containing study samples, calibration standards at 10 concentration levels, QC samples at three concentration levels in duplicate and blank samples. The analytical run acceptance criteria for calibration standards and QC samples was that at least 75% of back-calculated concentrations for calibration standards and at least 2/3 of the QC samples (at least 50% at each concentration level) should be within ±20% (±25% at LLOQ) from nominal value."}, "[2]": {"tested_on": "cleaved caspase-3 (CC3)", "assay": "Cleaved caspase-3 in RS4;11 tumours by MSD ELISA", "format": "in vivo, C.B-17 SCID mouse", "details": "for CC3 PD fold over vehicle, individual tumours: RS4;11, single dose 10 mg/kg or equivalent", "method": "Tumours were excised, snap frozen in liquid nitrogen and stored at –80 °C. Tumours were homogenised in lysis buffer containing protease and phosphatase inhibitors, protein concentration determined by Pierce BCA Protein Assay Kit and diluted in lysis buffer to a protein concentration of 0.4 μg/μL. Cleaved caspase-3 (CC3) was measured using the mesoscale cleaved caspase-3 (Asp175) assay whole cell lysate kit according to manufacturer’s instructions. Induction of CC3 was expressed as fold change of treated tumours over vehicle control."}, "[3]": {"tested_on": "telemetered dogs", "assay": "Conscious dog telemetry (QRS amplitude and other cardiovascular parameters, tolerability)", "details": "for ECG PR interval / ECG QRS duration / Left ventricular -dP/dt (mmHg/s) / QRS amplitude (% baseline) / Systolic blood pressure (mmHg): 0.2 mg/kg"}, "[4]": {"details": "dog 264, 0.5h infusion, -0.75 hours (pre-dose)"}, "[5]": {"details": "dog 264, 0.5h infusion, -1 hours (pre-dose)"}, "[6]": {"details": "dog 264, 0.5h infusion, -1.25 hours (pre-dose)"}}, "note": "Values joined by “and” are separate entries in the source; they are usually repeats but may differ in a detail not shown here. Equal values may be shown once. Read-outs that look alike come from different tables or passages of the source.", "data": [{"smiles": "CN(CCO)CCC(CSc1ccccc1)Nc1ccc(S(=O)(=O)NC(=O)c2ccc(N3CCC(C(O)c4ccccc4-c4ccc(Cl)cc4)CC3)cc2)cc1S(=O)(=O)C(F)(F)F", "note": "(stereo not drawn) [AZD4320]", "values": [{"measurement": "plasma concentration relative to initial concentration", "setting": "[1]; bolus IV, C.B-17 SCID mice, within 10 min", "value": "less than 20%"}, {"measurement": "concentration at 0.05 h", "setting": "[1]; female, C.B-17 SCID, mouse, plasma, intravenous, dosed at 5 mg/kg, 0.05 hr, read-out: Concentration AZD4320 in Plasma, Dose Adjusted to 10 mg/kg", "value": 30600, "unit": "ng/mL"}, {"measurement": "concentration at 0.5 h", "setting": "[1]; female, C.B-17 SCID, mouse, plasma, intravenous, dosed at 5 mg/kg, 0.5 hr, read-out: Concentration AZD4320 in Plasma, Dose Adjusted to 10 mg/kg", "value": 1950, "unit": "ng/mL"}, {"measurement": "concentration at 1 h", "setting": "[1]; female, C.B-17 SCID, mouse, plasma, intravenous, dosed at 5 mg/kg, 1 hr, read-out: Concentration AZD4320 in Plasma, Dose Adjusted to 10 mg/kg", "value": 870, "unit": "ng/mL"}, {"measurement": "concentration at 2 h", "setting": "[1]; female, C.B-17 SCID, mouse, plasma, intravenous, dosed at 5 mg/kg, 2 hr, read-out: Concentration AZD4320 in Plasma, Dose Adjusted to 10 mg/kg", "value": 150, "unit": "ng/mL"}, {"measurement": "concentration at 4 h", "setting": "[1]; female, C.B-17 SCID, mouse, plasma, intravenous, dosed at 5 mg/kg, 4 hr, read-out: Concentration AZD4320 in Plasma, Dose Adjusted to 10 mg/kg", "value": 170, "unit": "ng/mL"}, {"measurement": "concentration at 6 h", "setting": "[1]; female, C.B-17 SCID, mouse, plasma, intravenous, dosed at 5 mg/kg, 6 hr, read-out: Concentration AZD4320 in Plasma, Dose Adjusted to 10 mg/kg", "value": 120, "unit": "ng/mL"}, {"measurement": "concentration at 8 h", "setting": "[1]; female, C.B-17 SCID, mouse, plasma, intravenous, dosed at 5 mg/kg, 8 hr, read-out: Concentration AZD4320 in Plasma, Dose Adjusted to 10 mg/kg", "value": 80, "unit": "ng/mL"}, {"measurement": "concentration at 0.05 h", "setting": "[1]; female, C.B-17 SCID, mouse, plasma, iv, AZD4320 dosed at 5 mg/kg, 0.05 hr, read-out: Concentration AZD4320 in Plasma, Mean", "value": 15300, "unit": "ng/mL"}, {"measurement": "concentration at 0.05 h", "setting": "[1]; female, C.B-17 SCID, mouse, plasma, iv, AZD4320 dosed at 5 mg/kg, 0.05 hr, read-out: Concentration AZD4320 in Plasma, individual animals", "value": 13900, "unit": "ng/mL"}, {"measurement": "concentration at 0.5 h", "setting": "[1]; female, C.B-17 SCID, mouse, plasma, iv, AZD4320 dosed at 5 mg/kg, 0.5 hr, read-out: Concentration AZD4320 in Plasma, Mean", "value": 977, "unit": "ng/mL"}, {"measurement": "concentration at 0.5 h", "setting": "[1]; female, C.B-17 SCID, mouse, plasma, iv, AZD4320 dosed at 5 mg/kg, 0.5 hr, read-out: Concentration AZD4320 in Plasma, individual animals", "value": 1080, "unit": "ng/mL"}, {"measurement": "concentration at 1 h", "setting": "[1]; female, C.B-17 SCID, mouse, plasma, iv, AZD4320 dosed at 5 mg/kg, 1 hr, read-out: Concentration AZD4320 in Plasma, Mean", "value": 436, "unit": "ng/mL"}, {"measurement": "concentration at 1 h", "setting": "[1]; female, C.B-17 SCID, mouse, plasma, iv, AZD4320 dosed at 5 mg/kg, 1 hr, read-out: Concentration AZD4320 in Plasma, individual animals", "value": 579, "unit": "ng/mL"}, {"measurement": "concentration at 2 h", "setting": "[1]; female, C.B-17 SCID, mouse, plasma, iv, AZD4320 dosed at 5 mg/kg, 2 hr, read-out: Concentration AZD4320 in Plasma, Mean", "value": 75.3, "unit": "ng/mL"}, {"measurement": "concentration at 2 h", "setting": "[1]; female, C.B-17 SCID, mouse, plasma, iv, AZD4320 dosed at 5 mg/kg, 2 hr, read-out: Concentration AZD4320 in Plasma, individual animals", "value": 79.7, "unit": "ng/mL"}, {"measurement": "concentration at 4 h", "setting": "[1]; female, C.B-17 SCID, mouse, plasma, iv, AZD4320 dosed at 5 mg/kg, 4 hr, read-out: Concentration AZD4320 in Plasma, Mean", "value": 86.3, "unit": "ng/mL"}, {"measurement": "concentration at 6 h", "setting": "[1]; female, C.B-17 SCID, mouse, plasma, iv, AZD4320 dosed at 5 mg/kg, 6 hr, read-out: Concentration AZD4320 in Plasma, Mean", "value": 60.1, "unit": "ng/mL"}, {"measurement": "concentration at 8 h", "setting": "[1]; female, C.B-17 SCID, mouse, plasma, iv, AZD4320 dosed at 5 mg/kg, 8 hr, read-out: Concentration AZD4320 in Plasma, Mean", "value": 41.3, "unit": "ng/mL"}, {"measurement": "clearance", "setting": "[1]; female, C.B-17 SCID, plasma, mouse, 3-compartment model, conventional IV dose, read-out: Total Plasma Clearance CL (converted)", "value": 0.493, "unit": "mL/min"}, {"measurement": "Concentration AZD4320 in Plasma, individual animals", "setting": "[1]; AZD4320 dosed at 5 mg/kg, 0.05 hr", "value": 16000, "unit": "ng/mL"}, {"measurement": "Concentration AZD4320 in Plasma, individual animals", "setting": "[1]; AZD4320 dosed at 5 mg/kg, 0.5 hr", "value": "1030 ng/mL and 822 ng/mL"}, {"measurement": "Concentration AZD4320 in Plasma, individual animals", "setting": "[1]; AZD4320 dosed at 5 mg/kg, 1 hr", "value": "402 ng/mL and 328 ng/mL"}, {"measurement": "Concentration AZD4320 in Plasma, individual animals", "setting": "[1]; AZD4320 dosed at 5 mg/kg, 2 hr", "value": "67.8 ng/mL and 78.4 ng/mL"}, {"measurement": "Concentration AZD4320 in Plasma, individual animals", "setting": "[1]; AZD4320 dosed at 5 mg/kg, 4 hr", "value": "131 ng/mL and 54.4 ng/mL and 73.6 ng/mL"}, {"measurement": "Concentration AZD4320 in Plasma, individual animals", "setting": "[1]; AZD4320 dosed at 5 mg/kg, 6 hr", "value": "92.1 ng/mL and 39.5 ng/mL and 48.8 ng/mL"}, {"measurement": "Concentration AZD4320 in Plasma, individual animals", "setting": "[1]; AZD4320 dosed at 5 mg/kg, 8 hr", "value": "52.9 ng/mL and 53.4 ng/mL and 17.6 ng/mL"}, {"measurement": "Compartmental Micro Constant k12", "setting": "[1]; mouse, 3-compartment model", "value": 2.31, "unit": "h⁻¹"}, {"measurement": "Compartmental Micro Constant k13", "setting": "[1]; mouse, 3-compartment model", "value": 3.92, "unit": "h⁻¹"}, {"measurement": "Compartmental Micro Constant k21", "setting": "[1]; mouse, 3-compartment model", "value": 0.108, "unit": "h⁻¹"}, {"measurement": "Compartmental Micro Constant k31", "setting": "[1]; mouse, 3-compartment model", "value": 4.36, "unit": "h⁻¹"}, {"measurement": "Central Compartment Volume Vc", "setting": "[1]; mouse, 3-compartment model, conventional IV dose", "value": 0.0042, "unit": "L"}, {"measurement": "CC3 PD fold over vehicle, individual tumours", "setting": "[2]; 0.5 h, 10 mg/kg", "value": "36.58 fold over vehicle and 31.76 fold over vehicle"}, {"measurement": "CC3 PD fold over vehicle, individual tumours", "setting": "[2]; 1 h, 10 mg/kg", "value": "36.44 fold over vehicle and 36.82 fold over vehicle"}, {"measurement": "CC3 PD fold over vehicle, individual tumours", "setting": "[2]; 5 h, 10 mg/kg", "value": "42.22 fold over vehicle and 39.06 fold over vehicle"}, {"measurement": "CC3 PD fold over vehicle, individual tumours", "setting": "[2]; 24 h, 10 mg/kg", "value": "21.02 fold over vehicle and 47.67 fold over vehicle"}, {"measurement": "time of onset of CC3 activation", "setting": "[2]; RS4;11 tumours, 10 mg/kg or equivalent", "value": "≤ 0.5", "unit": "h"}, {"measurement": "maximal activation of cleaved caspase-3 (CC3)", "setting": "[2]; RS4;11 tumours, 10 mg/kg, by 5 h, sustained for 24 h", "value": 40, "unit": "fold"}, {"measurement": "NOEL (no observed effect level), cardiovascular system", "setting": "[3]; dog", "value": 0.2, "unit": "mg/kg"}, {"measurement": "ECG PR interval", "setting": "[3]; [4]", "value": 111, "unit": "ms"}, {"measurement": "ECG QRS duration", "setting": "[3]; [4]", "value": 46, "unit": "ms"}, {"measurement": "Left ventricular -dP/dt (mmHg/s)", "setting": "[3]; [4]", "value": 3600, "unit": "mmHg/s"}, {"measurement": "QRS amplitude (% baseline)", "setting": "[3]; [4]", "value": 92, "unit": "% baseline"}, {"measurement": "Systolic blood pressure (mmHg)", "setting": "[3]; [4]", "value": 151, "unit": "mmHg"}, {"measurement": "ECG PR interval", "setting": "[3]; [5]", "value": 116, "unit": "ms"}, {"measurement": "ECG QRS duration", "setting": "[3]; [5]", "value": 48, "unit": "ms"}, {"measurement": "Left ventricular -dP/dt (mmHg/s)", "setting": "[3]; [5]", "value": 3490, "unit": "mmHg/s"}, {"measurement": "QRS amplitude (% baseline)", "setting": "[3]; [5]", "value": 71, "unit": "% baseline"}, {"measurement": "Systolic blood pressure (mmHg)", "setting": "[3]; [5]", "value": 155, "unit": "mmHg"}, {"measurement": "ECG PR interval", "setting": "[3]; [6]", "value": 111, "unit": "ms"}, {"measurement": "ECG QRS duration", "setting": "[3]; [6]", "value": 47, "unit": "ms"}, {"measurement": "QRS amplitude (% baseline)", "setting": "[3]; [6]", "value": 83, "unit": "% baseline"}, {"measurement": "Systolic blood pressure (mmHg)", "setting": "[3]; [6]", "value": 145, "unit": "mmHg"}, {"measurement": "ECG PR interval", "setting": "[3]; dog, 0.2 mg/kg 0.5h infusion, 0.5 h", "value": "109 ms and 90 ms and 88 ms"}]}]}
